Assay results taken from article PMC9254247, “Dual-sensitive antibacterial peptide nanoparticles prevent dental caries” (Theranostics, 2022).
No end group written: not given here.

Tested on: fresh mice erythrocytes
Type: cell-based, mouse
Conditions: PBS pH 7.4; 30 min; 37 °C
Source text: Peptide and different pH of culture medium prepared. The pH of BHI medium was adjusted by HCl and NaOH. All peptides, including lycosin- I, pHly-1, s-pHly-1 were synthesized on a Rink amide-AM resin using the SPPS
(9- fluorenyl-methoxycarbonyl solid-phase peptide synthesis) method as reported previously1. Then peptides were cleaved from the resin using TFA/1,2- ethanedithiol/thioanisole/anisole (90/5/3/2 (v/v)), precipitated in cold diethyl ether and the collected precipitate was dried by air -drying . The prepared peptides were purified by reverse phase- HPLC (RP-HPLC) and their molecular weights were determined by MALDI-TOF MS.
Hemolytic assay. Approximately 4 % (in volume) of the mouse erythrocyte s were prepared by diluting fresh erythrocytes to 25-fold dilution with PBS buffer (pH 7.4).
The stock peptide solution ([…]) diluted by PBS solution to reach various concentrations (200 μL) was placed in a 1.5 mL sterile microfuge tube, followed by the addition of 200 μ L o f erythrocyte suspension. The mixture was incubated at 37 °C for 30 min. Then, the mixture was centrifuged at 3,500 rpm for 5 min to collect the supernatant. Aliquots (100 μL) of the supernatant were removed to 96-well plates, and the absorbance was detected at 450 nm using a microplate reader (Multiskan Spectrum, BioTek Inc., USA). Untreated erythrocyte suspension in an equal volume of PBS solution and 0.1% Triton X-100 were used as the negative control and positive […]
Isolation and culture of clinical S.mutans strains. Ethical approval of the study and the written consent/permission forms were obtained from Institutional Review Board (IRB) at Hunan Normal University prior to the study. For each child, written permission form was reviewed and signed by their legal guardians. Plaque -biofilm samples were collected from patients, including 16 Middle-aged and young patients and 4 children (age between 48 and 72 months) diagnosed with severe early childhood caries (S-ECC) in Changsha Stomatological Hospital. […]

“LHQHLHQHAIFHAIIHMAHFWIK-NH2 [s-pHly-1 NPs]” was tested, and the HC50 was 423.0 µM.
